In ChEMBL document CHEMBL6103581, “Identification of Thieno[3,2-d]pyrimidine derivatives as potent and selective Janus Kinase 1 inhibitors” (Eur J Med Chem, 2025):
Calls of active or inactive are those of the source. The rule behind the calls is not given here.

Assays:
NCI-H2087 [1] = assay: Induction of cell cycle arrest in human NCI-H2087 cells assessed as accumulation of cells at G2/M phase at 1 to 10 uM incubated for 24 hrs by propidium iodide/RNase staining based analysis; format: functional; conditions: dose 1-10 µM
U2OS = assay: Antiproliferative activity against human U2OS cells overexpressing JAK1 assessed as suppression of cell growth incubated for 72 hrs by Cell-TiterGlo assay; format: functional, cell-based
NCI-H2087 [2] = assay: Inhibition of colony formation in human NCI-H2087 cells at 10 uM incubated for 14 days by crystal violet staining based 2D colony formation assay; format: functional, cell-based; conditions: time 14.0 day
BaF3 = assay: Antiproliferative activity against mouse parental BaF3 cells assessed as cell growth inhibition incubated for 72 hrs by Cell-TiterGlo assay; format: functional
[3] = Antiproliferative activity against mouse Ba/F3-TEL-JAK1 cells assessed as cell growth inhibition incubated for 72 hrs by Cell-TiterGlo assay; format: functional
NCI-H1975 [4] = assay: Upregulation of STAT3 phosphorylation level in human NCI-H1975 cells; format: functional, cell-based
NCI-H1975 [5] = assay: Inhibition of colony formation in human NCI-H1975 cells at 10 uM incubated for 14 days by crystal violet staining based 2D colony formation assay; format: functional, cell-based; conditions: time 14.0 day
NCI-H2087 [6] = assay: Induction of apoptosis in human NCI-H2087 cells at 1 to 10 uM incubated for 24 hrs by Annexin V/Propidium iodide staining based analysis; format: functional, cell-based; conditions: dose 1-10 µM
HT-29 = assay: Antiproliferative activity against human HT-29 cells overexpressing JAK1 assessed as suppression of cell growth incubated for 72 hrs by Cell-TiterGlo assay; format: functional, cell-based
NCI-H2087 [7] = assay: Upregulation of STAT3 phosphorylation level in human NCI-H2087 cells; format: functional, cell-based
NCI-H1975 [8] = assay: Synergistic antiproliferative activity against human NCI-H1975 cells assessed as cell growth inhibition measured after 48 hrs in presence of osimertinib by celltiterglo analysis; format: functional, cell-based
UMUC3 = assay: Antiproliferative activity against human UMUC3 cells overexpressing JAK1 assessed as suppression of cell growth incubated for 72 hrs by Cell-TiterGlo assay; format: functional, cell-based
HCT-116 = assay: Antiproliferative activity against human HCT-116 cells overexpressing JAK1 assessed as suppression of cell growth incubated for 72 hrs by Cell-TiterGlo assay; format: functional, cell-based
[9] = biological target: Signal transducer and activator of transcription 3 (Homo sapiens) (UniProt P40763); assay: Inhibition of STAT3 phosphorylation in human NCI-H1975 cells incubated for 1 hr by Western blot analysis; format: cell-based; conditions: dose 1-10 µM
Chain of Signal transducer and activator of transcription 3 (Homo sapiens) (P40763 whole entry): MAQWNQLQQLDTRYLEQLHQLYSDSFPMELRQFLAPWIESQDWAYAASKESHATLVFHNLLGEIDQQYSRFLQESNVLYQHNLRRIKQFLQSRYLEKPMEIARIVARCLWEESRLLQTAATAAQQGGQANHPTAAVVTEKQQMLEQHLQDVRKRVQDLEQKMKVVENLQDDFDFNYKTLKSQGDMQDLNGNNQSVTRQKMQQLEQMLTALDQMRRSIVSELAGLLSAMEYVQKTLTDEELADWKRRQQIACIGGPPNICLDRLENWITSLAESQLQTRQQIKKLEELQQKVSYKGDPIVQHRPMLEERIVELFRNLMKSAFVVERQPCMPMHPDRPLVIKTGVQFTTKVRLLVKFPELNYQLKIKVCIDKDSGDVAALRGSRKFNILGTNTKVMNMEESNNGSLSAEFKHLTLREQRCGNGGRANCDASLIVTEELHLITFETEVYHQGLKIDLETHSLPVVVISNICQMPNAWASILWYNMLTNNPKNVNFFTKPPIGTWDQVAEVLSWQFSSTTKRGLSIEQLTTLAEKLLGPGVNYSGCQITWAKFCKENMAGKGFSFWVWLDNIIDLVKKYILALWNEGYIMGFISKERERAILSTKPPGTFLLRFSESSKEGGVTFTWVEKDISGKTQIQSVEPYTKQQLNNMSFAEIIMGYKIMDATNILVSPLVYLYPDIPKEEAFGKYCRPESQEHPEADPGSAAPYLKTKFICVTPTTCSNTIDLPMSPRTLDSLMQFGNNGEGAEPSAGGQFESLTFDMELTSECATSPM

NCI-H1975 [10] = assay: Induction of cell cycle arrest in human NCI-H1975 cells assessed as accumulation of cells at G2/M phase at 1 to 10 uM incubated for 24 hrs by propidium iodide/RNase staining based analysis; format: functional; conditions: dose 1-10 µM
[11] = biological target: T1, Tyrosine-protein kinase JAK3 (Homo sapiens, UniProt P52333); assay: Inhibition of N-terminal GST-tagged human recombinant JAK3 (781 to end residues) extracted from baculovirus infected in Sf9 cells using Poly(4:1 Glu, Tyr) as substrate preincubated for 15 min followed by substrate addition and measured after 1 hr by ADP-Glo kinase assay
T1 sequence (P52333 whole entry): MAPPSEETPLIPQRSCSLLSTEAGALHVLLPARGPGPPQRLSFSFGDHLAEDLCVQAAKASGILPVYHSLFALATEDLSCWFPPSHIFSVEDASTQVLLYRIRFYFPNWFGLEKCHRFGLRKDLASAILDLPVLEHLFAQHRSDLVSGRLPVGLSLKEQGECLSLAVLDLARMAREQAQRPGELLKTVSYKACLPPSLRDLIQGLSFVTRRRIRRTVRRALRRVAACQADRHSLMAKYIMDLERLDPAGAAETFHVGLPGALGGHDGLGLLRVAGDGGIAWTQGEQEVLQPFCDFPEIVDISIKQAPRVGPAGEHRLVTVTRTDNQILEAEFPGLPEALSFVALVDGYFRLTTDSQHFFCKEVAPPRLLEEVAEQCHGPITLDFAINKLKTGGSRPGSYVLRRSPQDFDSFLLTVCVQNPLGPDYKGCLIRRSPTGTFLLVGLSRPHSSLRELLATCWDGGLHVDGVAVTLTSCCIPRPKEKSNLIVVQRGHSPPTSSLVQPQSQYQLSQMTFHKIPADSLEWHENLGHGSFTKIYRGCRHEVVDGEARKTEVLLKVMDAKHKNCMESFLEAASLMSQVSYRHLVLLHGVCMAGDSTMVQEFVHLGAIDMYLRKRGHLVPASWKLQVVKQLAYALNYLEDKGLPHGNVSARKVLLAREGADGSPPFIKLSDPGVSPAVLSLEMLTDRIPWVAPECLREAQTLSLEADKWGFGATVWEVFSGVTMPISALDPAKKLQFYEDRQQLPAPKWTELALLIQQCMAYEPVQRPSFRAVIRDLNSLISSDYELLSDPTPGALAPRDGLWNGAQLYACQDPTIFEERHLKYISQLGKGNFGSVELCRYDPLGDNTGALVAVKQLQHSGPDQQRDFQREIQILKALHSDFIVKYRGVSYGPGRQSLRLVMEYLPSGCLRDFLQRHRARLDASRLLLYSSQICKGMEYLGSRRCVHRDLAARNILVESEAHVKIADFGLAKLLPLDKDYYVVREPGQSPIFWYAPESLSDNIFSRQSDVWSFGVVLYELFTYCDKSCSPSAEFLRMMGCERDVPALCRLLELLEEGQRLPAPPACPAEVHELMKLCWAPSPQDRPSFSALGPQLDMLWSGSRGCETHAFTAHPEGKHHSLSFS

NCI-H1975 [12] = assay: Antiproliferative activity against human NCI-H1975 cells assessed as cell growth inhibition incubated for 72 hrs by Cell-TiterGlo assay; format: functional
NCI-H1975 [13] = assay: Induction of apoptosis in human NCI-H1975 cells at 1 to 10 uM incubated for 24 hrs by Annexin V/Propidium iodide staining based analysis; format: functional, cell-based; conditions: dose 1-10 µM
NCI-H1975 [14] = assay: Antiproliferative activity against human NCI-H1975 cells overexpressing JAK1 assessed as suppression of cell growth incubated for 72 hrs by Cell-TiterGlo assay; format: functional, cell-based
NCI-H2087 [15] = assay: Antiproliferative activity against human NCI-H2087 cells assessed as cell growth inhibition incubated for 72 hrs by Cell-TiterGlo assay; format: functional
NCI-H2087 [16] = assay: Antiproliferative activity against human NCI-H2087 cells overexpressing JAK1 assessed as suppression of cell growth incubated for 72 hrs by Cell-TiterGlo assay; format: functional, cell-based
[17] = biological target: Signal transducer and activator of transcription 3 (Homo sapiens) (UniProt P40763); assay: Inhibition of STAT3 phosphorylation in human NCI-H2087 cells incubated for 1 hr by Western blot analysis; format: cell-based; conditions: dose 1-10 µM
[18] = biological target: T2, Tyrosine-protein kinase JAK2 (Homo sapiens, UniProt O60674); assay: Inhibition of N-terminal GST-tagged human recombinant JAK2 (804 to end residues) extracted from baculovirus infected in Sf9 cells using IGF1Rtide as substrate preincubated for 15 min followed by substrate addition and measured after 1 hr by ADP-Glo kinase assay
T2 sequence (O60674 whole entry): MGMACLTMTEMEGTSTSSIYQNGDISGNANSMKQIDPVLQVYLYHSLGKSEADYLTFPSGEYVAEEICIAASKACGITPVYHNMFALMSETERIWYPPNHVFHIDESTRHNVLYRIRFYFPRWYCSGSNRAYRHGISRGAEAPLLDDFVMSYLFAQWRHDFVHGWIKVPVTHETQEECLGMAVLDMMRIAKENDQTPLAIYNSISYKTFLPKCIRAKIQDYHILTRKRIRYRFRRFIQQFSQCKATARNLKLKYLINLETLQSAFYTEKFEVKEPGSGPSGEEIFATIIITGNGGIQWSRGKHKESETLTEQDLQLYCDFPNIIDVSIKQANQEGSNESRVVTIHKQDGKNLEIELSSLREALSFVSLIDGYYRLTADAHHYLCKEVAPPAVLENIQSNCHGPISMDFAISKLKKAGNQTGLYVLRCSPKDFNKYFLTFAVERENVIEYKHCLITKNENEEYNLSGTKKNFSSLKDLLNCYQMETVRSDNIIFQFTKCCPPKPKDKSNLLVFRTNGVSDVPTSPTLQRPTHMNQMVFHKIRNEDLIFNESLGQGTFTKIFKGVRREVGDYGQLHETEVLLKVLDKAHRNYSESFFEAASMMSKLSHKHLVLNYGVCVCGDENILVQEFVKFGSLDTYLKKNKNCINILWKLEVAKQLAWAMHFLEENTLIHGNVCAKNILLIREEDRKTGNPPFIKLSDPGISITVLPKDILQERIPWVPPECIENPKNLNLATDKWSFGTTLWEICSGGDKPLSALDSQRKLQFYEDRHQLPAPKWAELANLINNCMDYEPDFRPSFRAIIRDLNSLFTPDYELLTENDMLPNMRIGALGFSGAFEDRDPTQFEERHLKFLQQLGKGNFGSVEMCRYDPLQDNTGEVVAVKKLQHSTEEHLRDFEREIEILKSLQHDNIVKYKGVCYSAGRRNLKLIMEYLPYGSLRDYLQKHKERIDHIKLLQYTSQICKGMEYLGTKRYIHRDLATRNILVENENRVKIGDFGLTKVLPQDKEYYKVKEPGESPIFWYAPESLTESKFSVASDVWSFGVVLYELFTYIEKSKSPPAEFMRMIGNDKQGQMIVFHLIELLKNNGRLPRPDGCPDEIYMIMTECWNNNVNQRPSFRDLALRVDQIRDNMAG

[19] = biological target: Non-receptor tyrosine-protein kinase TYK2 (Homo sapiens) (UniProt P29597); assay: Inhibition of human TYK2 at 0.1 uM preincubated for 20 min followed by 33P-ATP addition measured after 2 hrs by P81 filter-binding method relative to control; conditions: time 140.0 min
Chain of Non-receptor tyrosine-protein kinase TYK2 (Homo sapiens) (P29597 whole entry): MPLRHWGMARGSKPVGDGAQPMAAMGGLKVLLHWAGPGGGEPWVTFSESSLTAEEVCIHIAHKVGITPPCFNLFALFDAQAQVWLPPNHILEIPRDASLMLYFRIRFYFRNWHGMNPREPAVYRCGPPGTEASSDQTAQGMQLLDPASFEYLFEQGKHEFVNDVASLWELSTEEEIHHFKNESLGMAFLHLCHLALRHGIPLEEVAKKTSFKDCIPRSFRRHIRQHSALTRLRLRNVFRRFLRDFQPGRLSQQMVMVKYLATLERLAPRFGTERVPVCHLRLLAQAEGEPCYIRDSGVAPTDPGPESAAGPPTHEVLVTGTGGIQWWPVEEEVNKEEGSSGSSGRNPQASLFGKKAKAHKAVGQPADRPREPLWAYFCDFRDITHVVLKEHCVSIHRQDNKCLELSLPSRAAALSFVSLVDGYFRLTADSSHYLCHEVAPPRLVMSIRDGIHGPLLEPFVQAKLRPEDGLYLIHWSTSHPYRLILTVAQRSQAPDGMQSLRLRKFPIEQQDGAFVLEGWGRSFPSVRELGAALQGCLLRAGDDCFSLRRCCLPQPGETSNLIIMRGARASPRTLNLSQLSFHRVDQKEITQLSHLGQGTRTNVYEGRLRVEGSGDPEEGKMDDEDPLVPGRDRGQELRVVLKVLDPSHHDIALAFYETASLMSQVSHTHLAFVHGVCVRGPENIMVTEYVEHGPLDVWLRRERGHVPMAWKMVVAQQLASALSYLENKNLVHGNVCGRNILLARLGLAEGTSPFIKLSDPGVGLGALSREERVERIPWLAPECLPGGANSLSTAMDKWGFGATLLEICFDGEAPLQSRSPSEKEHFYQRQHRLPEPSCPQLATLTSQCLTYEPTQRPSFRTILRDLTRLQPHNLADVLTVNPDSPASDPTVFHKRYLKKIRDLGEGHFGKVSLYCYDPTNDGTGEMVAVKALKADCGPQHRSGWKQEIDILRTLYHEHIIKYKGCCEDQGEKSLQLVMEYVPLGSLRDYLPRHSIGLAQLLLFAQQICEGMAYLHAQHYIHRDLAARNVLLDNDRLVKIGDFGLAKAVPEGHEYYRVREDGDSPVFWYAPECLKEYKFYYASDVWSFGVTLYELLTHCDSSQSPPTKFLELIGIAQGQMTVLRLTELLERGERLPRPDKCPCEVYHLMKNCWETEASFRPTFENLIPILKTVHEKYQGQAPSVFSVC

[20] = biological target: T3, Aurora kinase C (Homo sapiens) (UniProt Q9UQB9); assay: Inhibition of human Aurora C at 0.1 uM preincubated for 20 min followed by 33P-ATP addition measured after 2 hrs by P81 filter-binding method relative to control; conditions: time 140.0 min
T3 sequence (whole entry): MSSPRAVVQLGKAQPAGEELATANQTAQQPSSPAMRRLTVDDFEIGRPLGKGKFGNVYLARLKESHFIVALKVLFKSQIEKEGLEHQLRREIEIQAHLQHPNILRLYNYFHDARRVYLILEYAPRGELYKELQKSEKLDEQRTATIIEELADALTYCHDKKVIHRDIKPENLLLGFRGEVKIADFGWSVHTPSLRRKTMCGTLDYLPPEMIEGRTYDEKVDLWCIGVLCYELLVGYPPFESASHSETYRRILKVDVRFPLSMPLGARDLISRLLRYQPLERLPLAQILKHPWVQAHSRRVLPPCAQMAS

[21] = biological target: T4, Tyrosine-protein kinase JAK3 (Homo sapiens) (UniProt P52333); assay: Inhibition of human JAK3 at 0.1 uM preincubated for 20 min followed by 33P-ATP addition measured after 2 hrs by P81 filter-binding method relative to control; conditions: time 140.0 min
T4 sequence (whole entry): T1 sequence (P52333 whole entry)

[22] = biological target: Receptor-type tyrosine-protein kinase FLT3 (Homo sapiens) (UniProt P36888); assay: Inhibition of human FLT3 at 0.1 uM preincubated for 20 min followed by 33P-ATP addition measured after 2 hrs by P81 filter-binding method relative to control; conditions: time 140.0 min
Chain of Receptor-type tyrosine-protein kinase FLT3 (Homo sapiens) (P36888 whole entry): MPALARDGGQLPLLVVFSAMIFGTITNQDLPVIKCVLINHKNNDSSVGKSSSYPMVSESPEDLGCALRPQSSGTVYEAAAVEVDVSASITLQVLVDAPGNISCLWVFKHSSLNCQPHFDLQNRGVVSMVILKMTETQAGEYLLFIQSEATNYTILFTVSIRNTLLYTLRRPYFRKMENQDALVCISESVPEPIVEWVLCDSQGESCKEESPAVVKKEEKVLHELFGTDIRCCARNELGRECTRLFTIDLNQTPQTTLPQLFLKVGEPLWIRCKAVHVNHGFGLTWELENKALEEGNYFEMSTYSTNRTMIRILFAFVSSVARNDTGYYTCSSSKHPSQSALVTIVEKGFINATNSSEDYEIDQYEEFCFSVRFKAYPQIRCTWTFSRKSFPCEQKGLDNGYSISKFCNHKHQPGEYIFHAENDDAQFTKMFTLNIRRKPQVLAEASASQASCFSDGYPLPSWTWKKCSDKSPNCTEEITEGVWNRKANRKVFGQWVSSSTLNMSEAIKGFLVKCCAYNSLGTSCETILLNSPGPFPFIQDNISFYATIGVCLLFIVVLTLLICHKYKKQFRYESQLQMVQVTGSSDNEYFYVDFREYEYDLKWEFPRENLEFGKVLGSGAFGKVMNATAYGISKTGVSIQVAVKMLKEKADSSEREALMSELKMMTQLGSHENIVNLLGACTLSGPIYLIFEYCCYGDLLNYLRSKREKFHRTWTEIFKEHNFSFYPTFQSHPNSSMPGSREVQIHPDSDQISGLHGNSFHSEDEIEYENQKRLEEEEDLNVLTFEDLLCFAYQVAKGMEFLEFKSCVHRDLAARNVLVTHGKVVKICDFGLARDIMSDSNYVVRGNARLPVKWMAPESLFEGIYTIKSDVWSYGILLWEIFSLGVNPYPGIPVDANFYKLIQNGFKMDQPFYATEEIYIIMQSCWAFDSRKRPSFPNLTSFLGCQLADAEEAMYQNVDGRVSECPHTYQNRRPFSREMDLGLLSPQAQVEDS

NCI-H2087 [23] = assay: Inhibition of colony formation in human NCI-H2087 cells at 10 uM incubated for 14 days by crystal violet staining based 2D colony formation assay relative to control; format: functional; conditions: NCI-H2087, 336 h, time 14 day
[24] = biological target: T2, Tyrosine-protein kinase JAK2; assay: Inhibition of human JAK2 at 0.1 uM preincubated for 20 min followed by 33P-ATP addition measured after 2 hrs by P81 filter-binding method relative to control; conditions: time 140.0 min
NCI-H1975 [25] = assay: Inhibition of colony formation in human NCI-H1975 cells at 10 uM incubated for 14 days by crystal violet staining based 2D colony formation assay relative to control; format: functional; conditions: NCI-H1975, 336 h, time 14 day
[26] = biological target: Tyrosine-protein kinase JAK1 (Homo sapiens, UniProt P23458); assay: Inhibition of N-terminal GST-tagged human recombinant JAK1 (438 to end residues) extracted from baculovirus infected in Sf9 cells using KKHTDDGYMPMSPGVA as substrate preincubated for 15 min followed by substrate addition and measured after 1 hr by ADP-Glo kinase assay

| SMILES | Activity (NCI-H2087 [1]) | Activity (U2OS) | inhibition (NCI-H2087 [2]) | GI50 (BaF3) [nM] | GI50 [3] [nM] | Activity (NCI-H1975 [4]) | inhibition (NCI-H1975 [5]) | Activity (NCI-H2087 [6]) | Activity (HT-29) | Activity (NCI-H2087 [7]) | Activity (NCI-H1975 [8]) | Activity (UMUC3) | inhibition [9] | Activity (NCI-H1975 [10]) | IC50 [11] [nM] | GI50 (NCI-H1975 [12]) [nM] | Activity (NCI-H1975 [13]) | GI50 (NCI-H2087 [15]) [nM] | inhibition [17] | IC50 [18] [nM] | further results |
| --- | --- | --- | --- | --- | --- | --- | --- | --- | --- | --- | --- | --- | --- | --- | --- | --- | --- | --- | --- | --- | --- |
| Cc1nn(C)cc1Nc1ncc2scc(-c3cccc(NC(=O)[C@@H](C)N4CCN(C)CC4)c3)c2n1 | Active | Active | Active | 2910 | 450 | Active | Active | Active | Active | Active | Active | Active | Dose-dependent-effect | Active | 4900 | 3190 | Active | 5650 | Dose-dependent-effect | 2750 | Activity (HCT-116): Active; Activity (NCI-H1975 [14]): Active; Activity (NCI-H2087 [16]): Active |
| COc1nn(C)cc1Nc1ncc2scc(-c3cccc(NC(=O)[C@@H](C)N4CCN(C)CC4)c3)c2n1 | Active | Active | – | 1450 | 447 | Active | – | Active | Active | Active | Active | Active | Dose-dependent-effect | Active | 4030 | 2460 | Active | 6810 | Dose-dependent-effect | 3580 | inhibition [19]: 18.1%; inhibition [20]: 83.7%; inhibition [21]: 15.5%; inhibition [22]: 82.5%; Activity (HCT-116): Active; inhibition at 10 µM (NCI-H2087 [23]): 100%; inhibition [24]: 61.8%; Activity (NCI-H1975 [14]): Active; Activity (NCI-H2087 [16]): Active; inhibition at 10 µM (NCI-H1975 [25]): 100% |
| COc1nn(C)cc1Nc1ncc2scc(-c3cccc(NC(=O)[C@@H](C)N4CCN(CCO)CC4)c3)c2n1 | Active | – | – | 614 | 193 | – | – | Active | – | – | Active | – | Dose-dependent-effect | Active | 1600 | 6670 | Active | 5960 | Dose-dependent-effect | 759 | inhibition at 10 µM (NCI-H2087 [23]): 100%; inhibition at 10 µM (NCI-H1975 [25]): 100% |
| COc1nn(C)cc1Nc1nccc(-c2c[nH]c3c(NC(=O)[C@@H](C)N4CCN(C)CC4)cccc23)n1 [GOLIDOCITINIB] | Active | – | Active | 3670 | 514 | – | Active | Active | – | – | Active | – | – | Active | 1920 | 36700 | Active | 40200 | – | 613 | IC50 [26]: 82 nM |
| COc1nn(C)cc1Nc1ncc2scc(-c3cccc(NC(C)=O)c3)c2n1 | – | – | – | 4160 | 331 | – | – | – | – | – | – | – | – | – | 50 | > 50000 | – | > 44000 | – | 295 | – |
| COc1nn(C)cc1Nc1ncc2scc(-c3cccc(NC(=O)[C@H]4CCCN4)c3)c2n1 | – | – | – | 3310 | 744 | – | – | – | – | – | – | – | – | – | 69 | 5260 | – | 1510 | – | 1600 | – |
